The text below walks through data of patent US20240408162A1, “Use of Extract from Morus alba L. in the Preparation of a Medicament for Preventing and/or Treating a Hepatobiliary Disease” (BEIJING WEHAND-BIO PHARMACEUTICAL CO., LTD, priority 2022, published 2024).

One series has as its system 3T3-L1 adipocytes. The series can be described thus: Secretion of adiponectin in 3T3-L1 adipocytes (ELISA of supernatant). It counts as cell-based. Conditions: DNJ 80, 40, 20 μg/ml; summary statement. On the procedure:
Reduced adiponectin levels were independent risk factors for NAFLD and liver dysfunction. Adiponectin might activate liver AMPK, inhibit lipid synthesis, and promote lipid oxidation. Adiponectin might also affect inflammation of hepatic macrophages and fibrosis of hepatic stellate cells. 3T3-L1 pre-adipocytes were cultured in the medium containing calf serum and seeded into a 6-well plate at a density of 2×10^4 cells/ml. […] The supernatant was collected after culture for 8 days, and the concentration of adiponectin in the supernatant was detected using an ELISA kit.
(An ELISA detects its analyte on a solid surface through an enzyme-linked reagent.)

The next series has as its system HepG2 hepatocytes. The series is described as follows: Palmitic acid-treated HepG2 hepatocytes (non-alcoholic fatty liver model), triglyceride and cholesterol by kit. It counts as cell-based. The settings on record: PA-treated HepG2, 24 h, DNJ 20 μg/ml. As for the experimental part: HepG2 hepatocytes were cultured overnight in a 6-well plate at a seeding density of 2×10^5 cells/ml after digestion. HepG2 cells were treated with palmitic acid (PA) to create a non-alcoholic fatty liver model, with 0.25% BSA treatment as a control. Cells in the model groups were separately administrated with extracts from Morus alba L. (designed to be 25 μg/ml (containing 17 μg/ml DNJ) based on total alkaloids (SZ-A)) obtained from Example 1, 20 μg/ml DNJ, 5 μg/ml FAG, or 5 μg/ml DAB, and cultured for 24 h. Cells were lysed with the lysis solution containing Triton x-100 after removal of the supernatant, and the triglyceride (TG) and cholesterol (TC) in hepatocytes were detected using a kit.

Turning to `OC[C@H]1NC[C@H](O)[C@@H](O)[C@@H]1O` [DNJ, 1-deoxynojirimycin], in the series on 3T3-L1 adipocytes, the concentration of adiponectin entry is given as “increase the concentration of adiponectin”. In the series on HepG2 hepatocytes (SZ-A 25 μg/ml (based on total alkaloids)), the “triglyceride (TG) level in hepatocytes” value is listed as “reduce the triglyceride level”. Further, the “cholesterol (TC) level in hepatocytes” value in the series with HepG2 hepatocytes (SZ-A 25 μg/ml) is reported as “reduced the cholesterol level”.
